According to ChEMBL document CHEMBL1795288, “Lignans and neolignans from Sinocalamus affinis and their absolute configurations” (2011):
Active and inactive are the calls of the source. No cut-off for these calls is given here.

Columns and labels:
[1] = test system: Human immunodeficiency virus 1; assay: Antiviral activity against HIV1 NL4-3 infected in human 293T cells assessed as inhibition of viral replication at 10 uM after 48 hrs by luciferase reporter gene assay; format: functional, organism-based
[2] = test system: Peritoneal macrophage cell; assay: Inhibition of LPS-induced nitric oxide production in C57BL/6J mouse peritoneal macrophages at 10 uM after 24 hrs by Griess reaction; format: functional
Liver microsomes = assay: Antioxidant activity in rat Liver microsome assessed as inhibition of Fe2+-cystine-induced lipid peroxidation at 10 uM; format: functional
WB-F344 = assay: Hepatoprotective activity against DL-galactosamine-induced cell damage in rat WB-F344 cells at 10 uM after 24 hrs by MTT assay; format: functional, cell-based
A549 = assay: Cytotoxicity against human A549 cells at 10 uM after 96 hrs by MTT assay; format: functional, cell-based
BGC-823 = assay: Cytotoxicity against human BGC823 cells at 10 uM after 96 hrs by MTT assay; format: functional, cell-based
MCF7 = assay: Cytotoxicity against human MCF7 cells at 10 uM after 96 hrs by MTT assay; format: functional, cell-based
Bel-7402 = assay: Cytotoxicity against human Bel7402 cells at 10 uM after 96 hrs by MTT assay; format: functional, cell-based
KETR3 = assay: Cytotoxicity against human Ketr3 cells at 10 uM after 96 hrs by MTT assay; format: functional, cell-based
HCT-8 = assay: Cytotoxicity against human HCT8 cells at 10 uM after 96 hrs by MTT assay; format: functional, cell-based
PC-12 = assay: Neuroprotective activity against serum deprivation-induced toxicity in rat PC12 cells assessed as increase in cell viability at 10 uM after 48 hrs by MTT assay; format: functional

Question: `COc1cc([C@H](O)[C@@H](CO)Oc2c(OC)cc([C@@H]3Oc4c(OC)cc(C=O)cc4[C@H]3CO)cc2OC)ccc1O` was tested. Which inhibition [1] did it give?
Answer: inactive

Question: And the inhibition at 10 µM [2]?
Answer: < 30%

Question: What about the inhibition (Liver microsomes) of the same molecule?
Answer: inactive

Question: And the Activity (WB-F344)?
Answer: inactive

Question: And the Activity (A549)?
Answer: inactive

Question: What about the Activity (BGC-823) of the same molecule?
Answer: inactive

Question: And the Activity (MCF7)?
Answer: inactive

Question: What about the Activity (Bel-7402) of the same molecule?
Answer: inactive

Question: What about the Activity (KETR3) of the same molecule?
Answer: inactive

Question: What about the Activity (HCT-8) of the same molecule?
Answer: inactive

Question: For `COc1cc(-c2cc(=O)c3c(O)cc(O)cc3o2)cc(OC)c1O[C@@H](CO)[C@@H](O)c1ccc(O)cc1`, which inhibition [1] is on record?
Answer: inactive

Question: What about the Activity (PC-12) of the same molecule?
Answer: 107.2%

Question: And the inhibition at 10 µM [2]?
Answer: 84.2%

Question: What about the inhibition (Liver microsomes) of the same molecule?
Answer: inactive

Question: What about the Activity (WB-F344) of the same molecule?
Answer: inactive

Question: And the Activity (A549)?
Answer: inactive

Question: What about the Activity (BGC-823) of the same molecule?
Answer: inactive

Question: And the Activity (MCF7)?
Answer: inactive

Question: And the Activity (Bel-7402)?
Answer: inactive

Question: What about the Activity (KETR3) of the same molecule?
Answer: inactive

Question: What about the Activity (HCT-8) of the same molecule?
Answer: inactive

Question: Which results are given for `COc1cc2c(c(OC)c1O)[C@H]1c3c(cc(OC)c(O)c3OC)OC[C@@H](C2)[C@H]1CO`?
Answer: inhibition [1]: inactive; inhibition at 10 µM [2]: < 30%; inhibition (Liver microsomes): inactive; Activity (WB-F344): inactive; Activity (A549): inactive; Activity (BGC-823): inactive; Activity (MCF7): inactive; Activity (Bel-7402): inactive; Activity (KETR3): inactive; Activity (HCT-8): inactive

Question: For `COc1cc(C(=O)[C@@H]2CO[C@H](c3cc(OC)c(O)c(OC)c3)[C@H]2CO)cc(OC)c1O`, which inhibition [1] is on record?
Answer: inactive

Question: What about the inhibition at 10 µM [2] of the same molecule?
Answer: < 30%

Question: And the inhibition (Liver microsomes)?
Answer: inactive

Question: And the Activity (WB-F344)?
Answer: inactive

Question: What about the Activity (A549) of the same molecule?
Answer: inactive

Question: What about the Activity (BGC-823) of the same molecule?
Answer: inactive

Question: And the Activity (MCF7)?
Answer: inactive

Question: What about the Activity (Bel-7402) of the same molecule?
Answer: inactive

Question: And the Activity (KETR3)?
Answer: inactive

Question: What about the Activity (HCT-8) of the same molecule?
Answer: inactive

Question: `COc1cc([C@H](O)[C@H](CO)Oc2c(OC)cc([C@@H]3OC[C@@H]4[C@H]3CO[C@H]4c3cc(OC)c(O[C@@H](CO)[C@@H](O)c4ccc(O)c(OC)c4)c(OC)c3)cc2OC)ccc1O` was tested. Which inhibition [1] did it give?
Answer: inactive

Question: And the inhibition at 10 µM [2]?
Answer: < 30%

Question: And the inhibition (Liver microsomes)?
Answer: inactive

Question: What about the Activity (WB-F344) of the same molecule?
Answer: inactive

Question: And the Activity (A549)?
Answer: inactive

Question: What about the Activity (BGC-823) of the same molecule?
Answer: inactive

Question: And the Activity (MCF7)?
Answer: inactive

Question: And the Activity (Bel-7402)?
Answer: inactive

Question: And the Activity (KETR3)?
Answer: inactive

Question: And the Activity (HCT-8)?
Answer: inactive

Question: Which results are given for `COc1cc([C@H](O)[C@H](CO)Oc2c(OC)cc(C(=O)O)cc2OC)ccc1O`?
Answer: inhibition [1]: inactive; inhibition at 10 µM [2]: < 30%; inhibition (Liver microsomes): inactive; Activity (WB-F344): inactive; Activity (A549): inactive; Activity (BGC-823): inactive; Activity (MCF7): inactive; Activity (Bel-7402): inactive; Activity (KETR3): inactive; Activity (HCT-8): inactive

Question: How did the inhibition [1] turn out when `COc1cc([C@H](O)[C@H](CO)Oc2c(OC)cc(-c3cc(=O)c4c(O)cc(O)cc4o3)cc2OC)ccc1O` [SALCOLIN B] was run?
Answer: inactive

Question: And the Activity (PC-12)?
Answer: 97.6%

Question: And the inhibition at 10 µM [2]?
Answer: 71.7%

Question: What about the inhibition (Liver microsomes) of the same molecule?
Answer: inactive

Question: What about the Activity (WB-F344) of the same molecule?
Answer: inactive

Question: What about the Activity (A549) of the same molecule?
Answer: inactive

Question: And the Activity (BGC-823)?
Answer: inactive

Question: And the Activity (MCF7)?
Answer: inactive

Question: And the Activity (Bel-7402)?
Answer: inactive

Question: What about the Activity (KETR3) of the same molecule?
Answer: inactive

Question: And the Activity (HCT-8)?
Answer: inactive

Question: Which results are given for `COc1cc([C@@H]2OC[C@@H]3[C@H]2CO[C@H]3c2cc(OC)c(OC)c(OC)c2)cc(OC)c1O`?
Answer: inhibition [1]: inactive; inhibition at 10 µM [2]: < 30%; inhibition (Liver microsomes): inactive; Activity (WB-F344): inactive; Activity (A549): inactive; Activity (BGC-823): inactive; Activity (MCF7): inactive; Activity (Bel-7402): inactive; Activity (KETR3): inactive; Activity (HCT-8): inactive

Question: `COc1cc([C@@H]2O[C@@H](c3cc(OC)c(OC)c(OC)c3)[C@H](CO)[C@H]2CO)cc(OC)c1O` was tested. Which inhibition [1] did it give?
Answer: inactive

Question: What about the inhibition at 10 µM [2] of the same molecule?
Answer: < 30%

Question: What about the inhibition (Liver microsomes) of the same molecule?
Answer: inactive

Question: And the Activity (WB-F344)?
Answer: inactive

Question: What about the Activity (A549) of the same molecule?
Answer: inactive

Question: And the Activity (BGC-823)?
Answer: inactive

Question: And the Activity (MCF7)?
Answer: inactive

Question: What about the Activity (Bel-7402) of the same molecule?
Answer: inactive

Question: And the Activity (KETR3)?
Answer: inactive

Question: What about the Activity (HCT-8) of the same molecule?
Answer: inactive

Question: How did the inhibition [1] turn out when `COc1cc([C@@H](O)[C@H](CO)Oc2c(OC)cc(-c3cc(=O)c4c(O)cc(O)cc4o3)cc2OC)ccc1O` was run?
Answer: inactive

Question: And the inhibition at 10 µM [2]?
Answer: < 30%

Question: What about the inhibition (Liver microsomes) of the same molecule?
Answer: inactive

Question: And the Activity (WB-F344)?
Answer: inactive

Question: And the Activity (A549)?
Answer: inactive

Question: What about the Activity (BGC-823) of the same molecule?
Answer: inactive

Question: What about the Activity (MCF7) of the same molecule?
Answer: inactive

Question: What about the Activity (Bel-7402) of the same molecule?
Answer: inactive

Question: And the Activity (KETR3)?
Answer: inactive

Question: What about the Activity (HCT-8) of the same molecule?
Answer: inactive

Question: How did the inhibition [1] turn out when `COc1cc([C@@H]2Oc3c(OC)cc(/C=C/CO)cc3[C@H]2CO)cc(OC)c1OC` was run?
Answer: inactive

Question: And the inhibition at 10 µM [2]?
Answer: < 30%

Question: What about the inhibition (Liver microsomes) of the same molecule?
Answer: inactive

Question: And the Activity (WB-F344)?
Answer: inactive

Question: And the Activity (A549)?
Answer: inactive

Question: What about the Activity (BGC-823) of the same molecule?
Answer: inactive

Question: And the Activity (MCF7)?
Answer: inactive

Question: What about the Activity (Bel-7402) of the same molecule?
Answer: inactive

Question: And the Activity (KETR3)?
Answer: inactive

Question: And the Activity (HCT-8)?
Answer: inactive

Question: `C[C@@H]1C[C@H]2[C@@H]3CCC4=CC(=O)C=C[C@]4(C)[C@@]3(F)[C@@H](O)C[C@]2(C)[C@@]1(O)C(=O)CO` [DEXAMETHASONE] was tested. Which inhibition at 10 µM [2] did it give?
Answer: 61.6%

Question: Which results are given for `COc1cc(-c2cc(=O)c3c(O)cc(O)cc3o2)cc(OC)c1O[C@@H](CO)[C@H](O)c1ccc(O)cc1`?
Answer: inhibition [1]: inactive; Activity (PC-12): 80.7%; inhibition at 10 µM [2]: < 30%; inhibition (Liver microsomes): inactive; Activity (WB-F344): inactive; Activity (A549): inactive; Activity (BGC-823): inactive; Activity (MCF7): inactive; Activity (Bel-7402): inactive; Activity (KETR3): inactive; Activity (HCT-8): inactive

Question: `COc1cc([C@H](O)[C@H](CO)Oc2c(OC)cc(O)cc2OC)ccc1O` was tested. Which inhibition [1] did it give?
Answer: inactive

Question: What about the inhibition at 10 µM [2] of the same molecule?
Answer: < 30%

Question: And the inhibition (Liver microsomes)?
Answer: inactive

Question: What about the Activity (WB-F344) of the same molecule?
Answer: inactive

Question: And the Activity (A549)?
Answer: inactive

Question: And the Activity (BGC-823)?
Answer: inactive

Question: What about the Activity (MCF7) of the same molecule?
Answer: inactive

Question: And the Activity (Bel-7402)?
Answer: inactive

Question: What about the Activity (KETR3) of the same molecule?
Answer: inactive

Question: What about the Activity (HCT-8) of the same molecule?
Answer: inactive

Question: Which inhibition [1] does the source give for `COc1cc([C@@H](O)[C@H](CO)Oc2c(OC)cc([C@@H]3OC[C@@H]4[C@H]3CO[C@H]4c3cc(OC)c(O[C@@H](CO)[C@H](O)c4ccc(O)c(OC)c4)c(OC)c3)cc2OC)ccc1O` here?
Answer: inactive

Question: And the inhibition at 10 µM [2]?
Answer: < 30%

Question: And the inhibition (Liver microsomes)?
Answer: inactive

Question: And the Activity (WB-F344)?
Answer: inactive

Question: What about the Activity (A549) of the same molecule?
Answer: inactive

Question: And the Activity (BGC-823)?
Answer: inactive

Question: What about the Activity (MCF7) of the same molecule?
Answer: inactive

Question: What about the Activity (Bel-7402) of the same molecule?
Answer: inactive

Question: And the Activity (KETR3)?
Answer: inactive

Question: And the Activity (HCT-8)?
Answer: inactive
